Measurements taken from patent US11168092B2 (priority 2019, dated 2021).
Where “and” joins values, the source holds several entries; their conditions need not be identical. Identical values can stand only once.

Legend:
Type in all cases: cell-based
Design in all cases: unit not given here
[1] = test system: lung cancer cells (A549)
[2] = test system: skin cancer cells (SK-MEL-2)
[3] = test system: colorectal cancer cells (HCT15)
[4] = test system: ovarian cancer cells (SK-OV-3)

CC1=CC(=O)OCC23CCC(C)(O)C4CC5(O)C(CC(OC(=O)C=CC=CC(C(C)O)OCC1)C52C)OC43 [compound 1, (1R,4Z,6E,8R,12E,16aR,19S,20S,20aR,22R,23S,23aS)-19,23-dihydroxy-8-((R)-1-hydroxyethyl)-12,19,23a-trimethyl-10,11,17,18,19,20,20a,22,23,23a-decahydro-1H-1,22:20,23-dimethano[1,6,12]trioxacyclooctadecino[3,4-d]chromene-3,14(8H,16H)-dione]
Anticancer activity (value at given concentration) [1]: 97.91 and 93.12 and 93.03 and 94.31 and 92.44 and 95.94
Anticancer activity (value at given concentration) [2]: 96.98 and 91.60 and 95.73 and 101.17 and 96.51 and 96.60
Anticancer activity (value at given concentration) [3]: 103.41 and 91.11 and 101.55 and 101.52 and 102.70 and 101.58
Anticancer activity (value at given concentration) [4]: 103.77 and 87.76 and 98.54 and 100.24 and 89.90 and 95.08
